# Measured values from US20220168252A1, “RETINOID DERIVATIVES WITH ANTITUMOR ACTIVITY” (BIOGEM S.C. A R.L., priority 2016, published 2022).
# Where two headings read alike, the source gives them in different places.
# Legend:
# Z138 (lymphoma) = assay: Cell survival, Z138, 72 h, MTT; type: cell-based, Human
# Protocol: (§1) The anti-proliferative activity of the POLA1/HDAC dual inhibitors MIR002 and GEM144 was assessed on various cell lines from solid and hematological cancers.
# (§2) Tumor cells were treated with POLA1/HDAC dual inhibitors and cell survival assessed upon 72 h with the MTT assay. HDAC=Histone Deacetylase. POLA1=DNA Polymerase Alpha 1.
# U2932 (lymphoma) = assay: Cell survival, U2932, 72 h, MTT; type: cell-based, Human
# Protocol: as §1, §2
# SW620 colon carcinoma = conditions: 72 h; SRB
# Protocol: (§3) To this end, cells in the logarithmic phase of growth were seeded in 96-wells plastic plates, incubated overnight in culture medium, and treated for 72 h with scalar concentrations (2-fold dilution series) of the compounds.
# (§4) Tumor cells were exposed to the inhibitors, and the anti-proliferative activity assessed upon 72 h with the SRB assay. N.e.=not evaluated.
# DU145 prostate carcinoma = conditions: 72 h; SRB
# Protocol: as §3, §4
# HT29 colon carcinoma = conditions: 72 h; SRB
# Protocol: as §3, §4
# MM473-Luc mesothelioma = assay: Anti-proliferative activity, MM473-Luc, 72 h, SRB; type: cell-based, Human; conditions: for IC50: read-out: MM473-Luc IC50 ± SD
# Protocol: as §1
# (§5) HDAC=Histone Deacetylase. POLA1=DNA Polymerase Alpha 1. N.e.=not evaluated.
# [1] = tested on: ST1926-resistant H460 (H460-R9A) NSCLC; assay: Anti-proliferative activity, H460-R9A, 72 h, SRB; type: cell-based, human; conditions: for RI (Resistance Index): H460-R9A vs NCI-H460; for IC50: SRB, read-out: H460-R9A IC50 ± SD
# Protocol: as §1
# (§6) Human tumor cells were treated with POLA1/HDAC dual inhibitors and cell survival assessed upon 72 h with the SRB assay. HDAC=Histone Deacetylase. POLA1=DNA Polymerase Alpha 1. RI=Resistance Index.
# B16-Luc (Melanoma) = assay: Anti-proliferative activity, B16-Luc, 72 h, SRB; type: cell-based, mouse; conditions: for IC50: read-out: B16-Luc (Melanoma) IC50 ± SD
# Protocol: as §1, §5
# MM487-Luc mesothelioma [2] = assay: Anti-proliferative activity, MM487-Luc, 72 h, SRB; type: cell-based, Human; conditions: for IC50: read-out: MM487-Luc IC50 ± SD
# Protocol: as §1, §5
# NB4 (leukemia) = assay: Cell survival, NB4, 72 h, MTT; type: cell-based, Human; conditions: read-out: NB4 (leukemia) IC50 ± SD
# Protocol: as §1, §2
# [3] = tested on: parent A2780 ovarian carcinoma; assay: Anti-proliferative activity, A2780, 72 h, SRB; type: cell-based, human
# Protocol: as §1, §6
# Human NCI-H460 NSCLC [4] = assay: Anti-proliferative activity, NCI-H460, 72 h, SRB; type: cell-based
# Protocol: as §1, §6
# THP-1 (leukemia) = assay: Cell survival, THP-1, 72 h, MTT; type: cell-based, Human
# Protocol: as §1, §2
# [5] = tested on: multidrug-resistant A2780-Dx ovarian carcinoma; assay: Anti-proliferative activity, A2780-Dx, 72 h, SRB; type: cell-based, human; conditions: for IC50 / RI (Resistance Index): 72 h; for IC50: SRB, read-out: A2780-Dx IC50 ± SD
# Protocol: as §1, §6
# Human NCI-H460 NSCLC [6] = assay: Anti-proliferative activity, NCI-H460, 24 h exposure + 48 h recovery, SRB; type: cell-based; conditions: 48 h recovery in drug-free medium, SRB (Table 1)
# Protocol: Tumor cells were exposed for 24 h to new atypical retinoids (AR) and the anti-proliferative activity assessed upon 48 h recovery in drug-free medium with the SRB assay.
# [7] = tested on: NB4 (pro-myelocytic. leukemia); assay: Anti-proliferative activity, NB4, 24 h + 48 h recovery, MTT; type: cell-based; conditions: Homo sapiens, 24 h exposure
# Protocol: (§7) Tumor cells were exposed for 24 h to new atypical retinoids (AR) and the anti-proliferative activity assessed upon 48 h recovery in drug-free medium with the MTT assay.
# U87MG-Luc glioma = assay: Anti-proliferative activity, U87MG-Luc, 72 h, SRB; type: cell-based; conditions: Homo sapiens, read-out: 87MG-Luc (Glioma) IC50 ± SD
# Protocol: as §1, §5
# [8] = tested on: H460-R9A retinoid resistant cells; assay: H460-R9A lung cancer subcutaneous xenograft in mice; conditions: Cisplatin 4 mg/kg IV q7dx4w, MIR002 50 mg/kg OS bid, qdx5/wx4w
# Protocol: CD-1 nude and NOG mice, females, 4-5 weeks-old, were housed under specific-pathogen-free conditions in individually ventilated cages.
# Cells were cultured in appropriated media and expanded in a 37° C. incubator with saturated humidity and an atmosphere of 95% air and 5% CO2, and were sub-cultured every 2-3 days. Before the injection in mice, cells were checked with MycoAlert® Mycoplasma Detection Kit (Lonza) to exclude mycoplasma contamination, counted by trypan blue dye exclusion, evaluated for cell viability (>95%).
# H-460-R9A lung cancer cells were suspended at a concentration of 25×10^6/ml. 5×10^6 tumor cells were suspended in 0.2 ml of M199, then inoculated subcutaneously on the right flank of each animal.
# MIR002 was dissolved to a concentration of 3.3 mg/mL in 10% DMSO, 5% ethanol, 20% Kolliphor® EL and 65% Na2CO3 10 mM pH 11 and administered by gavage; Cisplatin was dissolved to a concentration of 0.8 mg/mL in sterile saline solution and administered intravenously.
# Four days after inoculation, tumor masses of H460-R9A were measured in length and width using a Mitutoyo caliper, mice were sorted basing on tumor volume (TV) and treatments were started. Tumor volume was calculated as follows: TV (mm3)=(Length (mm)×Width (mm)2)/2. Tumor growth was followed by biweekly measurements. Tumor Growth Inhibition (TGI) for each group was calculated as follows: TGI (%)=100−(mean TVtreated/mean TVcontrol×100). Mice were weighed twice a week.
# [9] = tested on: MDA-MB436 breast carcinoma; assay: Anti-proliferative activity, MDA-MB436, 72 h, SRB; type: cell-based; conditions: Homo sapiens, MDA-MB-436, read-out: DA-MB436 (Breast) IC50 ± SD
# Protocol: as §1, §5
# [10] = tested on: parent A2780 ovarian cancer cell line; assay: Anti-proliferative activity, A2780, 24 h + 48 h recovery, SRB; type: cell-based; conditions: Homo sapiens, 24 h exposure, read-out: IC50 ± SD A2780
# Protocol: (§8) Tumor cells were exposed for 24 h to new atypical retinoids (AR) and the anti-proliferative activity assessed upon 48 h recovery in drug-free medium with the SRB assay. RI=Resistance Index (ratio between the IC50 values of resistant and sensitive cells).
# U87MG glioblastoma cells = assay: Anti-proliferative activity, U87MG, 24 h + 48 h recovery, SRB; type: cell-based; conditions: Homo sapiens, U-87 MG, 24 h exposure, read-out: IC50 ± SD U87MG
# Protocol: as §8
# MDA-MB231 (Breast) = assay: Anti-proliferative activity, MDA-MB231, 72 h, SRB; type: cell-based; conditions: Homo sapiens, MDA-MB-231, read-out: MDA-MB231 (Breast) IC50 ± SD
# Protocol: as §1, §5
# [11] = tested on: Z-138 mantle cell lymphoma; assay: Anti-proliferative activity, Z-138, 24 h + 48 h recovery, MTT; type: cell-based; conditions: Homo sapiens, 24 h exposure
# Protocol: as §7
# MM432-Luc mesothelioma = assay: Anti-proliferative activity, MM432-Luc, 72 h, SRB; type: cell-based; conditions: Homo sapiens, read-out: MM432-Luc IC50 ± SD
# Protocol: as §1, §5
# MM487-Luc mesothelioma [12] = assay: Anti-proliferative activity, MM487-Luc, 24 h + 48 h recovery, SRB; type: cell-based; conditions: Homo sapiens, 24 h exposure, read-out: IC50 ± SD MM487-Luc
# Protocol: as §8
# [13] = tested on: A2780-Dx multidrug-resistant ovarian cancer cell line; assay: Anti-proliferative activity, A2780-Dx, 24 h + 48 h recovery, SRB; type: cell-based, Human
# Protocol: as §8
# As described by Zuco V. et al in Neoplasia, 2005 July; 7(7):667-77, H460-R9A are about 70 fold resistant with respect to parental H460 to Adarotene. […] Ovarian cancer A2780 and its clone derivative A2780DX (Doxorubicin resistant) which overexpress P-glycoprotein (PGP), were used to evaluate the possibility of these new molecules to be absorbed at intestinal level. In fact, the overexpression of PGP, as well known, drastically reduces the possibility, after oral administration, of absorption of several chemotherapeutic agents (i.e. Paclitaxel, doxorubicin etc.). Since the IC50 of the tested compounds in A2780 and A2780DX, have similar values we conclude that they are not PGP substrates and they could be administrated to the patients via oral route.
# [14] = tested on: Human Adarotene-resistant NCI-H460 (R9A) NSCLC; assay: Anti-proliferative activity, H460-R9A, 24 h + 48 h recovery, SRB; type: cell-based; conditions: 24 h exposure, read-out: IC50 ± SD H460-R9A
# Protocol: as §8
# [15] = tested on: human Pleural Epithelioid Mesothelioma MM473; assay: Orthotopic mesothelioma model MM473 xenografted on nude mice; type: in vivo; conditions: 50 mg/kg OS, bid, qdx5/wx4w
# Protocol: (MM473-Luc) were re-suspended at the concentration of 1×10^6 cells/40 μl M199 medium., then orthotopically injected intrapeulically with infusion of […] (with Hamilton syringe).
# Tumor growth was followed by biweekly measurements. […] Mice were weighed twice a week. […] Tumor growth was further followed by weekly BLI measurements. TGI was calculated as for the H460 trial.
structure (smiles),measurement,setting,value
CC(Oc1ccc(-c2ccc(/C=C/C(=O)O)cc2)cc1C12CC3CC(CC(C3)C1)C2)C(=O)NO (stereo not shown) [GEM144],"cytotoxicity, Z138 lymphoma",Z138 (lymphoma),very effective
same,IC50,Z138 (lymphoma); read-out: Z138 (lymphoma) IC50 ± SD,160 ± 30 nM
same,"cytotoxicity, U2932 lymphoma",U2932 (lymphoma),very effective
same,IC50,U2932 (lymphoma); read-out: U2932 (lymphoma) IC50 ± SD,770 ± 100 nM
same,"cytotoxicity, SW620 colon carcinoma",SW620 colon carcinoma,very effective
same,"cytotoxicity, DU145 prostate carcinoma",DU145 prostate carcinoma,very effective
same,"cytotoxicity, HT29 colon carcinoma",HT29 colon carcinoma,very effective
same,"cytotoxicity, MM473 mesothelioma",MM473-Luc mesothelioma,very effective
same,IC50,MM473-Luc mesothelioma,1400 ± 200 nM
same,RI (Resistance Index),[1],8.5
same,IC50,[1],2200 ± 90 nM
same,"cytotoxicity, B16 melanoma",B16-Luc (Melanoma),very effective
same,IC50,B16-Luc (Melanoma),370 ± 30 nM
same,"cytotoxicity, MM487 mesothelioma",MM487-Luc mesothelioma [2],very effective
same,IC50,MM487-Luc mesothelioma [2],730 ± 200 nM
same,IC50,NB4 (leukemia),230 ± 30 nM
same,IC50,[3]; read-out: A2780 IC50 ± SD,950 ± 40 nM
same,IC50,"Human NCI-H460 NSCLC [4]; 72 h, SRB (Table 8), read-out: NCI-H460 IC50 ± SD",260 ± 9 nM
same,cytotoxic activity / IC50 range on NCI-H460 cells,"Human NCI-H460 NSCLC [4]; 72 h, SRB/MTT assay",nano molar range
same,"cytotoxicity, THP-1 leukemia",THP-1 (leukemia),very effective
same,IC50,THP-1 (leukemia); read-out: THP-1 (leukemia) IC50 ± SD,520 ± 20 nM
same,IC50,[5],660 ± 8 nM
same,RI (Resistance Index),[5]; A2780-Dx vs A2780,0.7
same,substrate for the P-gp drug efflux pump,"[5]; indicated by low resistance index, A2780-Dx vs A2780",very poor substrate
"O=C(O)/C=C/c1ccc(-c2ccc(OCC(=O)NO)c(C34CC5CC(CC(C5)C3)C4)c2)cc1 [Compound 8, 3-(3′-Adamantan-1-yl-4′-hydroxycarbamoylmethoxybiphenyl-4-yl)-acrylic acid]",IC50,"Z138 (lymphoma); Homo sapiens, Z-138, read-out: Z138 (lymphoma) IC50 ± SD",38 ± 3 nM
same,IC50,Human NCI-H460 NSCLC [6],≤ 500 nM
same,IC50,[7],180 ± 40 nM
same,IC50,"U2932 (lymphoma); Homo sapiens, U2932, read-out: U2932 (lymphoma) IC50 ± SD",520 ± 30 nM
same,IC50,MM473-Luc mesothelioma; Homo sapiens,1200 ± 60 nM
same,IC50,U87MG-Luc glioma,1100 ± 300 nM
same,RI (Resistance Index),[1],11.2
same,IC50,"[1]; Homo sapiens, H460-R9A",2800 ± 50 nM
same,BWL Day + 35,[8]; Adarotene 15 mg/Kg OS q7dx5x4w,0%
same,TGI Day + 35,[8]; combination same doses,38%
same,IC50,B16-Luc (Melanoma); Mus musculus,270 ± 20 nM
same,IC50,[9],640 ± 30 nM
same,IC50,[10],600 ± 10 nM
same,IC50,MM487-Luc mesothelioma [2]; Homo sapiens,220 ± 20 nM
same,IC50,U87MG glioblastoma cells,1100 ± 300 nM
same,IC50,NB4 (leukemia); Homo sapiens,180 ± 40 nM
same,IC50,"[3]; Homo sapiens, A2780, read-out: A2780 IC50 ± SD",600 ± 10 nM
same,IC50,MDA-MB231 (Breast),1900 ± 200 nM
same,IC50,"Human NCI-H460 NSCLC [4]; Homo sapiens, NCI-H460, 72 h, SRB (Table 8), read-out: NCI-H460 IC50 ± SD",250 ± 6 nM
same,IC50,"Human NCI-H460 NSCLC [4]; Homo sapiens, NCI-H460, chronically exposed 72 h, SRB (Table 2), read-out: IC50 ± SD",< 500 nM
same,IC50,[11],74 ± 20 nM
same,IC50,MM432-Luc mesothelioma,1500 ± 80 nM
same,IC50,"THP-1 (leukemia); Homo sapiens, THP-1, read-out: THP-1 (leukemia) IC50 ± SD",420 ± 20 nM
same,RI (Resistance Index),[5]; A2780-Dx vs A2780,0.7
same,IC50,"[5]; Homo sapiens, A2780/DX",410 ± 5 nM
same,IC50,MM487-Luc mesothelioma [12],4500 ± 300 nM
same,"RI (Resistance Index, ratio between the IC50 values of resistant and sensitive cells)","[13]; A2780-Dx vs A2780, 24 h exposure",0.7
same,IC50,"[13]; Homo sapiens, A2780/DX, 24 h exposure, SRB, read-out: IC50 ± SD A2780-Dx",410 ± 5 nM
same,IC50,[14],2800 ± 300 nM
same,BWL Day + 35,[15],0%
same,TGI Day + 35,[15],77%
